Values after ≈ are worked out from the molar mass of the structure shown. Where two headings read alike, the source gives them in different places.
Experiments:
S. flexneri 5a M90T = assay: MIC in tryptic soy broth, S. flexneri; type: cell-based, Shigella flexneri; conditions: for MIC: Shigella flexneri, 5AM90T, read-out: MIC (μM) TSB; for MIC (μM) TSB: S. flexneri, extracellular bacteria in TSB
In short: (§1)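 Medium: CA-MHB + 40 mM HEPES, pH 7.4 (UPEC, P. aeruginosa, S. aureus); LPM + 30 mM MES, pH 5.5 (UPEC, extra condition); TSB (S. flexneri). Microdilution format, n = 3.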

E. coli CFT073 (UPEC) = assay: MIC, standard microdilution assay, growing UPEC; type: cell-based, Escherichia coli; conditions: for MIC (μM) CA-MHB +PAβN: CA-MHB with 10 μg/ml efflux pump inhibitor PaβN
In short: as §1

P. aeruginosa DSM1117 = assay: MIC, standard microdilution assay, growing P. aeruginosa; type: cell-based, Pseudomonas aeruginosa
In short: as §1

[1] = test system: intracellular S. flexneri 5a M90T in TC7 cells; assay: microbe, parasite or virus in culture; type: cell-based, Shigella flexneri
Source text: Nonproliferating bacterial pathogens frequently inhabit intracellular environments, but establishing relevant infection models for high-throughput testing is challenging. Therefore, we firstly tested ability of the hit compounds to cross the eukaryotic cytoplasmic membrane barrier and inhibit growth of S. flexneri within the cytoplasm of the TC7 human colon adenocarcinoma cell line[59]. To this end, we developed a new, fluorescence-based method that enables real-time monitoring of growth of intracellular Shigella. We used S. flexneri 5a M90T strain producing the AfaE adhesin that enhances bacterial adhesion to epithelial cells and allows synchronization of invasion. The strain was further modified to constitutively express super-folder GFP (sfGFP), which enables monitoring bacterial growth by fluorescence measurement. The epithelial cells were grown to confluence and infected with bacteria at an MOI (multiplicity of infection) of 50. […] Following bacterial adhesion and invasion, the cells were incubated with varying concentrations of the hit compounds and intracellular bacterial growth was tracked by measuring green fluorescence.
The cells were split using trypsin, seeded in 96-well plates for infection, and grown to confluence, corresponding to approximately 40,000 cells per well.
A single colony of S. flexneri was inoculated into TSB supplemented with 50 μg/ml spectinomycin and incubated overnight at 37°C with agitation. The overnight culture was diluted 1:200 in fresh TSB, and the bacteria were grown at 37 °C until the OD600 reached 0.3–0.4, corresponding to approximately 2 × 10^7 CFU/ml. Bacteria were pelleted by centrifugation, washed twice with sterile PBS, and resuspended in infection solution (serum-free DMEM supplemented with 20 mM HEPES, pH 7.4). Just prior to infection, the medium was withdrawn, and the cells were washed twice with sterile PBS. The bacterial inoculum (MOI 50, 2 × 10^7 CFU/ml) was added to all wells except the no-infection control. The plates were incubated at room temperature for 15 min to allow bacterial adhesion, followed by a 1 h incubation at 37 °C with 5% CO2 to facilitate bacterial invasion.
Twofold serial dilutions of the drugs were prepared in infection solution containing 50 μg/ml gentamicin in a 96-well plate. After the invasion period, the bacterial inoculum was removed, and the serial dilutions of the drugs were added to the wells, except for the no-drug control. […] […] The experiments were performed in triplicates on separate days.
Statistical significance of the drug effects was assessed using a one-way ANOVA followed by Dunnett’s test, comparing each treatment to the drug-free control. Statistical significance of the differences in chemical characteristics between the hit compounds and the Prestwick library was assessed using a Mann–Whitney test. Statistical significance was set at P ≤ 0.05. A five-parameter logistic equation was used for asymmetric sigmoidal curve fitting and for EC50 and IC50 determination. The Venn diagram in Fig. 1F was prepared using BioVenn web application. Characteristics of the chemical and physical properties of Prestwick library compounds were obtained from Supplementary Table S1 from reference. Characteristics of the hit compounds not included in the Prestwick library were retrieved from the PubChem database.

[2] = test system: non-growing P. aeruginosa DSM1117; assay: Dilution-regrowth assay (OD600, start-growth-time) on stationary-phase P. aeruginosa; type: cell-based, Pseudomonas aeruginosa; conditions: P. aeruginosa; for Regrowth, OD600 at 6h or 8h after dilution into drug-free medium: average
Procedure: To determine the spectrum of activity of the compounds that were effective against non-growing UPEC, we further assessed their efficacy against the well-characterized Gram-negative and Gram-positive reference strains P. aeruginosa DSM1117 and S. aureus DSM2569, respectively. The cultures were grown and treated for 24 h in 1:4 CA-MHB (pH 7.4). […].
For better characterization of the compounds causing the strongest regrowth delay, we performed the regrowth step of the dilution-regrowth experiments on a plate reader, measuring the OD600 at 20-min intervals for over 20 h instead of using an endpoint measurement. This approach allowed us to capture the time when cultures reached a threshold optical density (start-growth-time, SGT[15]).
Overnight cultures of UPEC, P. aeruginosa and S. aureus were grown in test tubes containing 3 ml of LB broth (~16 h), then diluted 1:100 into either 1:4 diluted CA-MHB medium buffered with 40 mM HEPES (pH 7.4) or, in case of UPEC, into LPM medium[25] supplemented with 49 µM MgCl2 and buffered with 30 mM MES (pH 5.5). The cultures were incubated for 24 h in non-baffled Erlenmeyer flasks at 37 °C with shaking at 200 rpm.
For P. aeruginosa and S. aureus, dose–response analysis was conducted in 96-well plates with a 200 μl assay volume, following the procedure used for screening assay validation experiments. Aliquots of the 39 compounds active against non-growing UPEC were obtained from SelleckChem and MedChem Express. Stock solutions were prepared and stored according to the manufacturers’ instructions, then diluted in 10% DMSO before use. Cultures were incubated for 24 h in 1:4 diluted CA-MHB medium under the same conditions used for UPEC cultivation. In preliminary experiments, each compound was tested at a concentration of 20 μM in the dilution-regrowth assay with 4 technical replicates. Regrowth was monitored using a microplate reader at 37 °C with continuous shaking, and OD600 was recorded every 20 min. The time at which OD600 exceeded the threshold of 0.12 was recorded as the Start_Growth-Time.
The statistical analysis of all data, as well as EC50 and IC50 determination, was conducted using GraphPad Prism 10.2.3. Statistical significance of the drug effects was assessed using a one-way ANOVA followed by Dunnett’s test, comparing each treatment to the drug-free control. Statistical significance of the differences in chemical characteristics between the hit compounds and the Prestwick library was assessed using a Mann–Whitney test. Statistical significance was set at P ≤ 0.05. A five-parameter logistic equation was used for asymmetric sigmoidal curve fitting and for EC50 and IC50 determination. The Venn diagram in Fig. 1F was prepared using BioVenn web application. Characteristics of the chemical and physical properties of Prestwick library compounds were obtained from Supplementary Table S1 from reference. Characteristics of the hit compounds not included in the Prestwick library were retrieved from the PubChem database.

[3] = Escherichia coli, E. coli, pH 7.4, CA-MHB, read-out: MIC (μM) CA-MHB
[4] = Pseudomonas aeruginosa, DSM1117, pH 7.4, read-out: MIC (μM) CA-MHB
[5] = Escherichia coli, pH 7.4, read-out: MIC (μM) 1:4 CA-MHB
[6] = Escherichia coli, pH 7.4, read-out: MIC (μM) CA-MHB
[7] = TC7 cells infected with GFP-expressing S. flexneri, 14 h treatment
[8] = P. aeruginosa, CA-MHB pH 7.4, read-out: MIC (μM) CA-MHB
[9] = E. coli, LPM pH 5.5, read-out: MIC
[10] = E. coli, pH 7.4, CA-MHB, read-out: MIC (μM) CA-MHB
[11] = Pseudomonas aeruginosa, DSM1117, P. aeruginosa, CA-MHB pH 7.4, read-out: MIC (μM) CA-MHB

Compound | MIC (S. flexneri 5a M90T) [µM] | MIC (E. coli CFT073 (UPEC); [3]) [µM] | MIC (μM) CA-MHB +PAβN (E. coli CFT073 (UPEC); E. coli, pH 7.4) [µM] | Fluorescence intensity (RFU), Mean, 0.25 x MIC [1, 7] [RFU] | Fluorescence intensity (RFU), Mean, 0.5 x MIC [1, 7] [RFU] | Fluorescence intensity (RFU), Mean, 2 x MIC [1, 7] [RFU] | Fluorescence intensity (RFU), Mean, 4 x MIC [1, 7] [RFU] | Fluorescence intensity (RFU), Mean, 8 x MIC [1, 7] [RFU] | Fluorescence intensity (RFU), Mean, MIC [1, 7] [RFU] | Fluorescence intensity (RFU), Mean, 16 x MIC [1, 7] [RFU] | MIC (μM) TSB (S. flexneri 5a M90T) [µM] | MIC (E. coli CFT073 (UPEC); [9]) [µM] | MIC (E. coli CFT073 (UPEC); [10]) [µM] | also measured
CCCCC(CC)CNC(=N)NC(=N)NCCCCCCNC(=N)NC(=N)NCC(CC)CCCC (stereo not drawn) [Alexidine] | 1 (≈ 0.509 µg/mL) | 2 (≈ 1.02 µg/mL) |  |  |  |  |  |  |  |  |  |  |  | 
CS[C@H]1SC[C@H]2C(=O)N(C)[C@@H](C(C)C)C(=O)OC[C@@H](NC(=O)c3cnc4ccccc4n3)C(=O)N[C@@H](C)C(=O)N(C)[C@@H]1C(=O)N(C)[C@@H](C(C)C)C(=O)OC[C@@H](NC(=O)c1cnc3ccccc3n1)C(=O)N[C@@H](C)C(=O)N2C [Echinomycin] | 4 (≈ 4.41 µg/mL) |  | 40 (≈ 44.1 µg/mL) |  |  |  |  |  |  |  |  |  |  | MIC (P. aeruginosa DSM1117; [4]): > 80 µM; MIC (E. coli CFT073 (UPEC); Escherichia coli, pH 5.5): 4 µM (≈ 4.41 µg/mL); MIC (E. coli CFT073 (UPEC); [5]): 40 µM (≈ 44.1 µg/mL); MIC (E. coli CFT073 (UPEC); [6]): 20 µM (≈ 22 µg/mL)
Cn1c(COP(=O)(NCCBr)NCCBr)cnc1[N+](=O)[O-] [Evofosfamide] | 32 (≈ 14.4 µg/mL) |  | >160 | 9046.58 | 8823.33 | 7151.78 | 5305.28 | 3462.11 | 8378.86 |  |  |  |  | MIC (P. aeruginosa DSM1117; [4]): > 160 µM; MIC:IC50 ratio ([1]; S. flexneri MIC in TSB versus intracellular IC50): below 0.5; IC50 ([1]; Shigella flexneri, TC7, 14 h): 102 µM; MIC (E. coli CFT073 (UPEC); Escherichia coli, pH 5.5): 160 µM (≈ 71.8 µg/mL); MIC (E. coli CFT073 (UPEC); [5]): > 160 µM; MIC (E. coli CFT073 (UPEC); [6]): > 160 µM
CO[C@H]1/C=C/O[C@@]2(C)Oc3c(C)c(O)c4c(O)c(c(/C=N/N=C/N5CCCCC5)c(O)c4c3C2=O)NC(=O)/C(C)=C\C=C\[C@H](C)[C@H](O)[C@@H](C)[C@@H](O)[C@@H](C)[C@H](OC(C)=O)[C@@H]1C [FCE-22250] |  |  | 4 (≈ 3.34 µg/mL) | 2896.5 | 1857.94 | 1320.58 | 1217.94 | 1111.33 | 1487.86 | 979.361 | 16 (≈ 13.4 µg/mL) | 2 (≈ 1.67 µg/mL) | 8 (≈ 6.68 µg/mL) | MIC (P. aeruginosa DSM1117; P. aeruginosa, 1:4 diluted CA-MHB pH 7.4, read-out: MIC (μM) 1:4 CA-MHB): 10 µM (≈ 8.35 µg/mL); MIC (P. aeruginosa DSM1117; [8]): >160 µM; Fluorescence intensity (RFU), Mean, 0.0625 x MIC ([1]; TC7 cells infected with GFP-expressing S. flexneri, 14 h treatment, 0.0625 x MIC): 8508.25 RFU; Fluorescence intensity (RFU), Mean, 0.125 x MIC ([1]; TC7 cells infected with GFP-expressing S. flexneri, 14 h treatment, 0.125 x MIC): 9069.58 RFU; MIC (E. coli CFT073 (UPEC); E. coli, pH 7.4, 1:4 diluted CA-MHB, read-out: MIC (μM) 1:4 CA-MHB): 10 µM (≈ 8.35 µg/mL)
N#Cc1c(N2C[C@@H]3NCCO[C@H]3C2)c(F)cc2c(=O)c(C(=O)O)cn(C3CC3)c12 [Finafloxacin] |  |  |  |  |  | 5014.06 | 3886.5 | 3157.03 | 6107.08 | 2833.69 | 0.125 (≈ 0.0498 µg/mL) | 0.007812 (≈ 0.00311 µg/mL) | 0.25 (≈ 0.0996 µg/mL) | MIC (P. aeruginosa DSM1117; [8]): 20 µM (≈ 7.97 µg/mL); Fluorescence intensity (RFU), Mean, 32 x MIC [1, 7]: 2227.19 RFU; IC50 ([1]; intracellular S. flexneri in TC7 cells, GFP fluorescence after 14 h treatment, read-out: IC50): 0.202 µM
CCCCCCCCN=c1ccn(CCCCCCCCCCn2ccc(=NCCCCCCCC)cc2)cc1 [Octenidine] |  | 1 (≈ 0.551 µg/mL) |  |  |  |  |  |  |  |  |  |  |  | MIC (P. aeruginosa DSM1117; [11]): 4 µM (≈ 2.2 µg/mL); Regrowth, OD600 at 6h or 8h after dilution into drug-free medium ([2]; concentration 0.1): 0.666; Regrowth, OD600 at 6h or 8h after dilution into drug-free medium ([2]; concentration 0.5): 0.602; Regrowth, OD600 at 6h or 8h after dilution into drug-free medium ([2]; concentration 2.5): 0.656; Regrowth, OD600 at 6h or 8h after dilution into drug-free medium (average) ([2]; drug concentration 10): 0.533; EC50 ([2]; Pseudomonas aeruginosa, DSM1117, regrowth delay of non-growing bacteria, 1:4 CA-MHB pH 7.4, 24 h treatment, OD600 8 h after dilution, read-out: EC50): 9.99 µM; MIC (E. coli CFT073 (UPEC); Escherichia coli, E. coli, LPM pH 5.5, read-out: MIC): 0.5 µM (≈ 0.275 µg/mL)
CC1COc2c(N3CCN(C)CC3)c(F)cc3c(=O)c(C(=O)O)cn1c23 (stereo not drawn) [Ofloxacin] | 0.125 (≈ 0.0452 µg/mL) | 0.25 (≈ 0.0903 µg/mL) |  | 9690.38 | 8574.42 | 3677.86 | 3135.58 | 2241.58 | 4797.17 | 1713.97 |  |  |  | MIC (P. aeruginosa DSM1117; [11]): 8 µM (≈ 2.89 µg/mL); IC50 ([1]; Shigella flexneri, TC7, 14 h): 0.113 µM; Fluorescence intensity (RFU), Mean, 32 x MIC [1, 7]: 1616.14 RFU
Plicamycin |  |  |  |  |  |  |  |  |  |  | >128 | 32 | 160 | 

Reference: PMC11992225, “Antibacterial compounds against non-growing and intracellular bacteria” (npj Antimicrobials and Resistance, 2025)
